Data as given in patent publication US20240327364A1, “THERAPEUTIC TARGETING OF GPR68 TO INDUCE FERROPTOSIS” (University Of Maryland, Baltimore, priority 2023, published 2024).

Legend:
[1] = target: T1, FLT3 (Homo sapiens, UniProt P36888); experiment: KinomeScan; assay type: binding; details: read-out: % Control
T1 construct: purchased DiscoveRx (Fremont, CA)

[2] = target: T2, VPAC1 (Homo sapiens, UniProt P32241); experiment: GPCR Profiler; assay type: cell-based
T2 construct: host or cells: Chem-1 cells expressing Galpha15
T2 sequence (P32241 31-457): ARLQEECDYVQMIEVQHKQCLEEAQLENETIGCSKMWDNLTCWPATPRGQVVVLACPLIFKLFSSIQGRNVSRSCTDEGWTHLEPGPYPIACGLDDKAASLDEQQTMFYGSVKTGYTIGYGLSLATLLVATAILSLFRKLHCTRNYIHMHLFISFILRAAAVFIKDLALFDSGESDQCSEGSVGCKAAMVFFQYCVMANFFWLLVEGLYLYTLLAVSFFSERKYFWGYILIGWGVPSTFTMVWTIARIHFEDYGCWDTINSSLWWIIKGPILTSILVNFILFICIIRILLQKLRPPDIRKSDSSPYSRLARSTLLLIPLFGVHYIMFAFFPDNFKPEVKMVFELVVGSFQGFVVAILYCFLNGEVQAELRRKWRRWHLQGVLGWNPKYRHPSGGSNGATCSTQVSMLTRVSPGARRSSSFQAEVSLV

[3] = target: T3, QSK (Homo sapiens, UniProt Q9Y2K2); experiment: KinomeScan; assay type: binding; details: read-out: % Control
T3 construct: purchased DiscoveRx (Fremont, CA)

[4] = target: T4, PIPSK1A (Homo sapiens, UniProt Q99755); experiment: KinomeScan; assay type: binding; details: read-out: % Control
T4 construct: purchased DiscoveRx (Fremont, CA)

[5] = target: T5, STK33 (Homo sapiens, UniProt Q9BYT3); experiment: KinomeScan; assay type: binding; details: read-out: % Control
T5 construct: purchased DiscoveRx (Fremont, CA)

[6] = target: T6, VPAC2 (Homo sapiens, UniProt P41587); experiment: GPCR Profiler; assay type: cell-based
T6 construct: host or cells: Chem-1 cells expressing Galpha15
T6 sequence (P41587 24-438): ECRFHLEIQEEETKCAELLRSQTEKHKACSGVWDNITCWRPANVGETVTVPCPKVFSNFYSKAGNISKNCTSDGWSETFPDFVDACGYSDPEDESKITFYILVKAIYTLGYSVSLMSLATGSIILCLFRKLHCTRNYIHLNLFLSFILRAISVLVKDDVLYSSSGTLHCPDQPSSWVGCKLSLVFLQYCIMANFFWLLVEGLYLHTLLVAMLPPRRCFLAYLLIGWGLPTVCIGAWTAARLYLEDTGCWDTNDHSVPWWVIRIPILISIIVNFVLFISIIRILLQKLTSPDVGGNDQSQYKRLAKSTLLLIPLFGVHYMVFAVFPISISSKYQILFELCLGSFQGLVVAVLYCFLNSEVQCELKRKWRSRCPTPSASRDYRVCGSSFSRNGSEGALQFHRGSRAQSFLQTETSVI

[7] = target: T7, NEK2 (Homo sapiens, UniProt P51955); experiment: KinomeScan; assay type: binding; details: read-out: % Control
T7 construct: purchased DiscoveRx

[8] = target: T8, 5-HT1A (Homo sapiens, UniProt P08908); experiment: GPCR Profiler; assay type: cell-based
T8 construct: host or cells: Chem-1 cells with promiscuous Gα15
T8 sequence (P08908 whole entry): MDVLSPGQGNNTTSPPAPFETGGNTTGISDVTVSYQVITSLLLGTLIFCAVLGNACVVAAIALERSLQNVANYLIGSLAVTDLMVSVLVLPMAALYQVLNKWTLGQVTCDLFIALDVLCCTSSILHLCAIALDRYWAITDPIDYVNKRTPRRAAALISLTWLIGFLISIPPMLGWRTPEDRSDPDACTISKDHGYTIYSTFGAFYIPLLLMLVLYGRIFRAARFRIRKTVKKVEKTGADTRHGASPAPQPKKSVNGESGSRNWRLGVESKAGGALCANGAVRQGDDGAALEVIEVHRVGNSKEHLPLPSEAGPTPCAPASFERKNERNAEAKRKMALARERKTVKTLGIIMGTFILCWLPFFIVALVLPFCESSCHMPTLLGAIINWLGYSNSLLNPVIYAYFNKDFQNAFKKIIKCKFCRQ

[9] = target: T9, IKK-epsilon (Homo sapiens, UniProt Q14164); experiment: KinomeScan; assay type: binding; details: read-out: % Control
T9 construct: purchased DiscoveRx (Fremont, CA)

[10] = target: T10, SBK1 (Homo sapiens, UniProt Q52WX2); experiment: KinomeScan; assay type: binding; details: read-out: % Control
T10 construct: purchased DiscoveRx (Fremont, CA)
T10 sequence (Q52WX2 whole entry): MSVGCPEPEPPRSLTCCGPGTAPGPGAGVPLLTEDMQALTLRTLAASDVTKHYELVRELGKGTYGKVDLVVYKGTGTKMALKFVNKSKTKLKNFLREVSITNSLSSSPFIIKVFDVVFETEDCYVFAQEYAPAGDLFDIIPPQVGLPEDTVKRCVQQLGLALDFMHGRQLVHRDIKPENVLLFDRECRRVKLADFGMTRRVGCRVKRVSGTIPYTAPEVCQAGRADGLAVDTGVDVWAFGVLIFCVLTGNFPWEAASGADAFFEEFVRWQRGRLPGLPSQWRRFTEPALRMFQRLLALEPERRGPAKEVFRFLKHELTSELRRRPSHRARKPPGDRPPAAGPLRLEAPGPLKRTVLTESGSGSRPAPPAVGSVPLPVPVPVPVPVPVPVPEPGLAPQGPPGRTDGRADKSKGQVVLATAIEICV

[11] = target: T11, MYLK4 (Homo sapiens, UniProt Q86YV6); experiment: KinomeScan; assay type: binding; details: read-out: % Control
T11 construct: purchased DiscoveRx
T11 sequence (Q86YV6 whole entry): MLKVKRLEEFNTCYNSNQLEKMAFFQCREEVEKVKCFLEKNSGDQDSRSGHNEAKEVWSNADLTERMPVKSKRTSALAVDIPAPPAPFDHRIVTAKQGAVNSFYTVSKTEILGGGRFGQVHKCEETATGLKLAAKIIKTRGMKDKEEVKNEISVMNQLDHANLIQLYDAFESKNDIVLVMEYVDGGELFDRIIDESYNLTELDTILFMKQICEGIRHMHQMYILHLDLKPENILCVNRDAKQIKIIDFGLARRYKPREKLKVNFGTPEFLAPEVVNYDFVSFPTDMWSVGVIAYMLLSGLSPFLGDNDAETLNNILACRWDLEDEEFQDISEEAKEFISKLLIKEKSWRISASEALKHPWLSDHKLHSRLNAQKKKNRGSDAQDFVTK

[12] = target: T12, SIK2 (Homo sapiens, UniProt Q9H0K1); experiment: KinomeScan; assay type: binding; details: read-out: % Control
T12 construct: purchased DiscoveRx (Fremont, CA)
T12 sequence (Q9H0K1 whole entry): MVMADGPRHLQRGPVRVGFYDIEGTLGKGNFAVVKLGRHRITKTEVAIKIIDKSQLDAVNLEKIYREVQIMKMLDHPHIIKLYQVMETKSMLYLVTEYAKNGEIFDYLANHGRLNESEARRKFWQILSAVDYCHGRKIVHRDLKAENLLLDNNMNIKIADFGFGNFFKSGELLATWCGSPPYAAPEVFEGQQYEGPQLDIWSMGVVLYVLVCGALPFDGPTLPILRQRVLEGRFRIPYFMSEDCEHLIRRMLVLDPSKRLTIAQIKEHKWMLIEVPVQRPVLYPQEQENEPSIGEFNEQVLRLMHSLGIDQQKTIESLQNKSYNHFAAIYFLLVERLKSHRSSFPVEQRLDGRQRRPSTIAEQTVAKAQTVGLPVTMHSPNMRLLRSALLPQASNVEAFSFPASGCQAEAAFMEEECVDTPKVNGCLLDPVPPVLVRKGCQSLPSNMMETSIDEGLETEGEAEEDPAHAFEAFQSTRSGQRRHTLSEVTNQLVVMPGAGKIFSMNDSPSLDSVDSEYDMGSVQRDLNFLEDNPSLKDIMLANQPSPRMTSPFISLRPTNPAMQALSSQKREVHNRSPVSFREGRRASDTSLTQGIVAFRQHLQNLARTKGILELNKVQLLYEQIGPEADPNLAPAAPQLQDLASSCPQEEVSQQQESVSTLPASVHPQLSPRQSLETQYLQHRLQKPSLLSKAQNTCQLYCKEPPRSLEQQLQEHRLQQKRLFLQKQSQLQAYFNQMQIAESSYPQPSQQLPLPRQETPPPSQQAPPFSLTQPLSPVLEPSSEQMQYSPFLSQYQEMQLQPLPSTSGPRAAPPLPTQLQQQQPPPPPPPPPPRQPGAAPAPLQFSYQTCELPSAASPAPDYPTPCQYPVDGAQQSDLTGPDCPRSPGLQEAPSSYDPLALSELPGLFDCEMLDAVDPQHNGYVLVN

[13] = target: T13, MUSK (Homo sapiens, UniProt O15146); experiment: KinomeScan; assay type: binding; details: read-out: % Control
T13 construct: purchased DiscoveRx

[14] = target: T14, OT (Homo sapiens, UniProt P30559); experiment: GPCR Profiler; assay type: cell-based
T14 construct: host or cells: Chem-1 cells expressing Gα15
T14 sequence (P30559 whole entry): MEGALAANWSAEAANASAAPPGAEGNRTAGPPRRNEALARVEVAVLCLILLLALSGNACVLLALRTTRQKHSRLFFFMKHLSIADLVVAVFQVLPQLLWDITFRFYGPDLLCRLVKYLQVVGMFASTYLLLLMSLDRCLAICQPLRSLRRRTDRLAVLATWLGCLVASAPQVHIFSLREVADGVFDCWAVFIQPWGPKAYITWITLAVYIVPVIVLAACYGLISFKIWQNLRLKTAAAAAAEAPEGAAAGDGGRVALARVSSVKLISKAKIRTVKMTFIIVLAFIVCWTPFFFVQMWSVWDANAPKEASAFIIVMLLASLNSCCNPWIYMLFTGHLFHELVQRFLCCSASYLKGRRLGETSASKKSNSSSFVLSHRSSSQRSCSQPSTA

[15] = target: T15, RET (Homo sapiens, UniProt P07949); experiment: KinomeScan; assay type: binding; details: read-out: % Control
T15 construct: purchased DiscoveRx (Fremont, CA)
T15 sequence (P07949 29-1114): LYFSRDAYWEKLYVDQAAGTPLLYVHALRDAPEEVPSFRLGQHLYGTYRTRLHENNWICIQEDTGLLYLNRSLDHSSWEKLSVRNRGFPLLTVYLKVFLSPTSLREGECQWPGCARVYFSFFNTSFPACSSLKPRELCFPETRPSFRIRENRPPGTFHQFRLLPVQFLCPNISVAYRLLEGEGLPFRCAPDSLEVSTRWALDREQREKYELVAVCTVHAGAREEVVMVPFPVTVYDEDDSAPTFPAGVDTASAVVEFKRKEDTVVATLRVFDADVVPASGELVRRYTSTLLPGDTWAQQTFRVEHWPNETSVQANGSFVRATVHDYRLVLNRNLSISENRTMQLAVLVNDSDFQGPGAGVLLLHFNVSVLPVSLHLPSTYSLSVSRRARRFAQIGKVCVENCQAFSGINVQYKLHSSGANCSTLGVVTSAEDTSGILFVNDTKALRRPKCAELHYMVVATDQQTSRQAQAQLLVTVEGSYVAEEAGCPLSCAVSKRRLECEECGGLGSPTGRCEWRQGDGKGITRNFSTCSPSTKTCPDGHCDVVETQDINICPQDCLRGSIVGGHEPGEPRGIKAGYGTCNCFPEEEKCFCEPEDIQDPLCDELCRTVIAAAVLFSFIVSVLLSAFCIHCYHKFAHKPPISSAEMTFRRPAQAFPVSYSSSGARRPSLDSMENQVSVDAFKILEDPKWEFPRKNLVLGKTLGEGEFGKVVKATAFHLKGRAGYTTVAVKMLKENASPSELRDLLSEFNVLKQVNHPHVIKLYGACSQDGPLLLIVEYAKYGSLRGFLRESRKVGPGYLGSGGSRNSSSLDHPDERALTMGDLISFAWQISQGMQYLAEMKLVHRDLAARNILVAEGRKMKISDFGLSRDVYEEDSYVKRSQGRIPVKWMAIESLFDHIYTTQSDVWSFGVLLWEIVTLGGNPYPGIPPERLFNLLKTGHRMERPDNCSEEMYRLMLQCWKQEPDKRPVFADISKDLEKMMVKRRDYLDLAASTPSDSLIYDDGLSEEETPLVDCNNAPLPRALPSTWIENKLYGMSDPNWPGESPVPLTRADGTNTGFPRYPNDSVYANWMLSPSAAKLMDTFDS

[16] = target: T16, CDK4-cyclinD3 (Homo sapiens, UniProt P11802); experiment: KinomeScan; assay type: binding; details: read-out: % Control
T16 construct: purchased DiscoveRx (KinomeScan service)

[17] = target: Lpa1 (Homo sapiens, UniProt Q92633); experiment: GPCR Profiler; assay type: cell-based
Sequence of Lpa1 (Q92633 whole entry, species assumed): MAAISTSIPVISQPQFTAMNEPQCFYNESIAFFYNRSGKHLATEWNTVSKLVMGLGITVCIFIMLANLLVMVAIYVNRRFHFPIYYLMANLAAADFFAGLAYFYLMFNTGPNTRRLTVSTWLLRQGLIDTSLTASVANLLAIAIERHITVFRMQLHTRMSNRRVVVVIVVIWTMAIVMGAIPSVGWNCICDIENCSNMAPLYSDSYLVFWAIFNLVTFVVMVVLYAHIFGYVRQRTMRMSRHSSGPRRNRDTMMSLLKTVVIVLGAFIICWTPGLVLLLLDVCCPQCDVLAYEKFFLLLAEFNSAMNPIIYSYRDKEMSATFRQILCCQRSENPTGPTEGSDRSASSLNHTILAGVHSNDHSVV

[18] = test system: zebrafish embryo; experiment: Zebrafish embryo phenotype; assay type: in vivo; details: 10 uM
Description: A chemical screen for small molecules that perturb embryonic development (dorsoventral axis) in zebrafish was performed as previously described (see Chen et al., 2009; Hao et al., 2013; Williams et al., 2015; Yu et al., 2008)). Briefly, pairs of WT zebrafish were mated, and fertilized eggs were arrayed in 96-well microtiter plates (5 embryos/well) containing […] E3 water. At 4 hours post fertilization (pf), a small molecule library from Vanderbilt High Throughput Screening Facility was added to each well to a final concentration of 10 μM. Embryos were incubated at 28.5 C until 24 and 48 hours pf, when they were examined for gross morphologic changes indicative of reproducible embryonic defects (dorsalization of the embryonic axis). A total of 30,000 compounds were screened. To discover novel small molecule modulators of embryonic development an unbiased screen of ˜30,000 small molecules was conducted, in which the compounds were assayed for their ability to induce phenotypic changes in the morphology of zebrafish. Further information on these assays can be found in Hao et al., 2013 and Williams et al., 2015. […] This compound was identified based on the phenotype of aberrant pigmentation. Compare FIG. 2B and FIG. 2C, which show a dorsal view of a representative DMSO vehicle control-treated zebrafish embryo at 48 hours pf and a dorsal view of a representative OGM1 (10 uM)-treated zebrafish embryo at 48 hours pf. […] Since GPCRs represent >30% of targets for FDA-approved small molecules and are known to modulate cell migration, activity against 158 GPCRs was assessed based on their chemical structures. GPCRs (158) were tested for agonist and antagonist activity at 10 μM. […] Chemical segregation analysis of zebrafish phenotype was conducted to further identify the inhibitory activity responsible for the zebrafish phenotype. […] The identities of the R groups in Formula A are shown below in Table 5.

[19] = target: T17, 336X-GFP (GPR68 truncation variant) (Homo sapiens, UniProt Q15743); experiment: SRE-luciferase assay, 336X-GFP transfected HEK293T cells; assay type: cell-based; details: OGM 10 μM
T17 construct: while the full-length (GPR68-GFP) internalizes in response to stimulation; expressed in transfected cells; host or cells: HEK293T
Description: 12-well plates of cells were transfected with 1 μg DNA using Lipofectamine 3000 with sre:luciferase and either the vector backbone, GFP, GPR68, GPR68-GFP, GPR4, or 336X-GFP. After 3 days, these cells were then lysed, and cell extracts were subjected to Steady-Glo luciferase assay (Promega™) according to the manufacturer's instructions. The results were normalized to cell titer, as determined using Cell Titer-Glo luminescence assay (Promega™). For some procedure, the cells were treated in serum-free medium, and were lysed on the third day.
Loss of internalization can indicate loss of activity or loss of the ability to internalize through beta-arrestin. […] Compared to GFP controls, GPR68-GFP and 336X-GFP transfected cells had higher levels of activity. (n=3 biological replicates done in triplicate). Furthermore, the activity of the truncation variant was still inhibited by OGM. […]

`CCc1ccc2c(c1)C1(NN=C(c3cccc4ccccc34)S1)C(=O)N2` (stereo not drawn) [OGM1, 5-ethyl-5′-naphthalen-1-ylspiro[1H-indole-3,2′-3H-1,3,4-thiadiazole]-2-one] showed a remaining binding at 10 µM [1] of 79%, an Antagonism ([2]; 10 uM) of 16.6 and an Agonism ([2]; 12.5 uM) of 0. The remaining binding at 10 µM [3] was 100%, the remaining binding at 10 µM [4] was 100% and the remaining binding at 10 µM [5] was 91%. For the same molecule, the Antagonism ([6]; 10 uM) was 6.9, the Agonism ([6]; 12.5 uM) was 10.7 and the remaining binding at 10 µM [7] was 78%. It also gave an Antagonism ([8]; 10 uM) of −7.5, an Agonism ([8]; 12.5 uM) of −0.8 and a remaining binding at 10 µM [9] of 100%. For the same molecule, the remaining binding at 10 µM [10] was 100%, the remaining binding at 10 µM [11] was 98% and the remaining binding at 10 µM [12] was 100%. For the same molecule, the remaining binding at 10 µM [13] was 90%, the Antagonism ([14]; 10 uM) was −2.4 and the Agonism ([14]; 12.5 uM) was 0.7. It also gave a remaining binding at 10 µM [15] of 100%, a remaining binding at 10 µM [16] of 76% and an Antagonism ([17]; 10 uM) of 89.5. For the same molecule, the Agonism ([17]; 12.5 uM) was 0.5 and the phenotypes induced [18] was “reproducibly induced ventral curvature, wavy notochord, shortened body axis, craniofacial defects, and loss of retinal iridophores”.
For `CCc1ccc2c(c1)C1(NN=C(c3ccccc3)S1)C(=O)N2` (stereo not drawn) [OGM2], the SRE-luciferase activity [19] was “reduced the level of luciferase activity”.
